Experimental data: article PMC12589546, “A plastid carbohydrate carrier mediates ribose recycling from nucleotide catabolism and glucose export from starch degradation” (Nature Communications, 2025)

Molecular target: T1, At-pGlcT (At-pGlcTNTD) (Arabidopsis thaliana, UniProt B9DGP1)
T1 construct: gene At5g16150; plastid transit peptide (residues 1-82) replaced by E. coli PhoR residues 1-54 (membrane-targeting NTD); C-terminal 6xHis tag kept; expressed in E. coli sugar-uptake mutants, intact-cell uptake
T1 sequence (B9DGP1 83-546): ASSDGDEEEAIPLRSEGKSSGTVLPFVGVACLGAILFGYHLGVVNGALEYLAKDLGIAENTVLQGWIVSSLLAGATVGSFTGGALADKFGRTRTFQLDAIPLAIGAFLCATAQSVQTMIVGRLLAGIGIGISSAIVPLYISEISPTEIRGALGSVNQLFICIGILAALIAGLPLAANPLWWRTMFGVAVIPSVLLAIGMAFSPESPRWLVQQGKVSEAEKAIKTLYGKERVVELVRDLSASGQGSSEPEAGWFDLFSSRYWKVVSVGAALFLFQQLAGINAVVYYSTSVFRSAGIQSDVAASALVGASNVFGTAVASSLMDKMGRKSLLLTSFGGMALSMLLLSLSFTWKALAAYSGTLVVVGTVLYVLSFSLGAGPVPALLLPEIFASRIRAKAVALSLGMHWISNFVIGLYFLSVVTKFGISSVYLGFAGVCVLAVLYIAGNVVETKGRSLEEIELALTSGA
Test: competition with […]-ribose uptake in E. coli ΔrbsC ΔxylH ΔalsC
Type: cell-based
Conditions: 1 mM 14C-ribose, 10 mM unlabelled sugar, pH 7, 37 °C, 30 min, competitive

| Compound | inhibition of 14C-ribose uptake at 10 mM (3H-fructose uptake also measured) | inhibition of 14C-ribose uptake at 10 mM (14C-glucose uptake also measured) |
| --- | --- | --- |
| OCC1(O)OC[C@@H](O)[C@@H](O)[C@@H]1O (some centres unmarked) [fructose] | its presence also reduced the uptake of the radioactively labeled ribose |  |
| OC[C@H]1OC(O)[C@H](O)[C@@H](O)[C@@H]1O (some centres unmarked) [glucose] |  | but also glucose was an equally efficient suppressor |
